# System: histamine induced nasal congestion
compound,measurement,setting,value
"NCCc1c[nH]cn1 [Histamine, histamine]",induction of nasal congestion,5% histamine aerosol for 5 minutes,induced congestion in all animals to varying degrees
same,nasal congestion and flow restriction pressure,"5 and 10 minutes post-histamine exposure, Group 1",progressive increase in nasal congestion and flow restriction pressure
same,histamine induced congestion without epinephrine,"pilot study, 60, 80 and 100 minute time points",remains elevated at significant levels

# Source: patent US20210093558A1 (Bryn Pharma, LLC, priority 2018, published 2021)
